Conditions: ethyl acetate and n-heptane 1:9, 25° C., 500 rpm, 24 hours
Excerpt: X-ray powder diffraction pattern in the present invention was acquired by a Panalytical Empyrean X-ray powder diffractometer. The parameters of the X-ray powder diffraction method of the present invention were as follows: • X-ray Reflection: Cu, Kα • Kα1 (Å): 1.540598; Kα2 (Å): 1.544426 • Kα2/Kα1 intensity ratio: 0.50 • Voltage: 45 (kV) • Current: 40 (mA) • Scan range: from 3.0 degree to 40.0 degree The pattern of differential scanning calorimetry (DSC) in the present invention was acquired by a TA Q200. The parameters of the differential scanning calorimetry (DSC) method of the present invention were as follow: • Heating rate: 10° C./min • Purge gas: nitrogen. The pattern of thermal gravimetric analysis (TGA) in the present invention was acquired by a TA Q5000. The parameters of the thermal gravimetric analysis (TGA) method of the present invention were as follow: • Heating rate: 10° C./min; • Purge gas: nitrogen.
The suspension was stirred at 500 rpm in a thermostat at 25° C. for 24 hours, and centrifuged to give a solid which was tested by XRPD.

Compound: CC[C@H]1[C@@H](O)[C@@H]2[C@H](CC[C@]3(C)[C@@H]([C@H](C)CCC(=O)O)CC[C@@H]23)[C@@]2(C)CC[C@@H](O)C[C@@H]12 [Form C, obeticholic acid]
- Crystal form after stirring the suspension (form conversion by XRPD): transferred to crystalline Form A

— patent US10273262B2, “Crystalline form A of obeticholic acid and preparation method thereof” (CRYSTAL PHARMATECH CO., LTD., priority 2014, dated 2019)
